From ChEMBL document CHEMBL5500381, “Antiviral drug discovery: Pyrimidine entry inhibitors for Zika and dengue viruses” (Eur J Med Chem, 2024)
Converted amounts (≈) assume the structure as drawn.

Tests used:
[1] = Solubility of the compound in phosphate-buffered saline solution (PBS,pH 7.4) incubated for 24 hrs by shake-flask method; assay type: physicochemical
[2] = Solubility of the compound in simulated intestinal fluid (SIF,pH 6.8) incubated for 24 hrs by shake-flask method; assay type: ADME
[3] = Solubility of the compound in simulated gastric fluid (SGF,pH 1.2) incubated for 24 hrs by shake-flask method; assay type: ADME
[4] = Cytotoxicity against African green monkey Vero cells assessed as cell viability measured after 72 hrs by MTT assay; assay type: toxicity, cell-based; details: chlorocebus sabaeus
dengue virus type 2 = test: Anti-viral activity against DENV-2 Thailand/16681/1984 strain infected in african green monkey Vero cells at 0.1 MOI assessed as reduction in virus yield measured after 48 hrs by virus reduction assay; assay type: functional, organism-based; details: Thailand/16681/1984, Vero
[5] = Selectivity index, ratio of CC50 for cytotoxicity against African green monkey Vero cells to EC50 for anti-viral activity against DENV-2 Thailand/16681/1984 strain; assay type: toxicity, cell-based; details: read-out: Selectivity Index
Zika virus = test: Anti-viral activity against ZIKV Argentine strain INEVH116141 infected in african green monkey Vero cells at 0.1 MOI assessed as reduction in virus yield measured after 48 hrs by virus reduction assay; assay type: functional, organism-based
[6] = Selectivity index, ratio of CC50 for cytotoxicity against African green monkey Vero cells to EC50 for anti-viral activity against ZIKV Argentine strain INEVH116141; assay type: toxicity, cell-based; details: read-out: Selectivity Index
[7] = Permeability of the compound by PAMPA assay; assay type: ADME
[8] = Plasma stability in human plasma measured at 4 hrs; assay type: ADME, cell-free
[9] = Plasma stability in mouse plasma measured at 4 hrs; assay type: ADME, cell-free

Work on `CC1(C)CC(Nc2nccc(Nc3ccc(-c4ccccc4)cc3)n2)CC(C)(C)N1` yielded a solubility thermodynamic at 24 h [1] of 93 µg/mL (≈ 232 µM), a solubility thermodynamic at 24 h [2] of 580 µg/mL (≈ 1440 µM) and a solubility thermodynamic at 24 h [3] of 2280 µg/mL (≈ 5690 µM).

Molecule `CC1(C)CC(Nc2nccc(Nc3ccc(Cl)cc3)n2)CC(C)(C)N1` has a CC50 at 72 h [4] of 5.19 µM, an EC50 (dengue virus type 2) of 3.15 µM and a selectivity ratio [5] of 1.64. The EC50 (Zika virus) was 2.48 µM and the selectivity ratio [6] was 2.09.

With `CC1(C)CC(Nc2ncnc(Nc3ccc(-c4ccccc4)cc3)n2)CC(C)(C)N1` the CC50 at 72 h [4] was 5.01 µM.

`c1ccc(-c2ccc(Nc3nc(NCCN4CCCCC4)nc4ccsc34)cc2)cc1` showed a CC50 at 72 h [4] of 7.5 µM, an EC50 (dengue virus type 2) of 8.15 µM and a selectivity ratio [5] of 0.92. The EC50 (Zika virus) was 4.1 µM and the selectivity ratio [6] was 1.83.

For `FC(F)(F)c1cc(Nc2ccc(-c3ccccc3)cc2)nc(NCCN2CCCCC2)n1`, the CC50 at 72 h [4] was 5.74 µM, the EC50 (dengue virus type 2) was 0.76 µM and the selectivity ratio [5] was 7.55. The EC50 (Zika virus) was 1.11 µM, the selectivity ratio [6] was 5.12 and the solubility thermodynamic at 24 h [1] was 4 µg/mL (≈ 9.06 µM). The solubility thermodynamic at 24 h [2] was 10 µg/mL (≈ 22.7 µM), the solubility thermodynamic at 24 h [3] was 506 µg/mL (≈ 1150 µM) and the permeability [7] was “Impermeable”. The Stability [8] was “Stable” and the Stability [9] was “Stable”.

Work on `FC(F)(F)c1cc(NCc2ccc(-c3ccccc3)cc2)nc(NCCN2CCCCC2)n1` yielded a CC50 at 72 h [4] of 36.9 µM, an EC50 (dengue virus type 2) of over 20 µM and a selectivity ratio [5] of under 2. For the same molecule, the EC50 (Zika virus) was over 20 µM and the selectivity ratio [6] was under 2.
